Laboratory results: patent US20250163022A1, “PARP1 INHIBITORS” (Synnovation Therapeutics, Inc., priority 2021, published 2025)

Each compound was assayed against T1, PARP1 (Homo sapiens, UniProt P09874) (assay: In-Cell Western measurement of PARylation in PARP1 WT and knockout cells). Settings: HeLa cells (wide-type with PARP1 gene); hydrogen peroxide-induced PARylation; compounds 30 min, then 10 mM hydrogen peroxide 15 min; read-out: HeLa_WT_IC50.
T1 construct: HeLa cells (wide-type with PARP1 gene) were purchased from ATCC; host or cells: HeLa (wild type)
Format: cell-based
Text: The purpose of this cell-based assay is to measure the potency and selectivity of synthesized PARP inhibitors in suppressing hydrogen peroxide-induced PARylation in cells with and without PARP1 expression. Several cell lines were used in this assay. The human PARP1 knockout HEK-293T cell line (#ab266598) was purchased from Abcam, and its corresponding wide-type control is the human wild-type HEK-293T cell line (#ab255449). The HAP1 isogenic cell lines with and without the PARP1 gene (#HZGHC003943c006) were purchased from Horizon Discovery. HeLa cells (wide-type with PARP1 gene) were purchased from ATCC. Cells were cultured using complete medium containing 10% fetal bovine serum. One day before the assay, cells were seeded in 96-well plates at the density of 20,000 cells per well in 100 uL complete medium. Compounds were dissolved using DMSO and diluted to the working concentrations using complete medium. Cells were pre-treated with compounds for 30 min and then stimulated with 10 mM hydrogen peroxide for 15 min. After stimulation, cells were immediately fixed using ice-cold methanol for 20 min. After fixation, cells were washed using 1×PBST buffer for 3 times, 5 min each time, to eliminate residual methanol. Cells were blocked for 2 h at room temperature in blocking buffer (LI-COR Biosciences, #927-70001). Primary antibody was diluted in diluent buffer (LI-COR Biosciences, #927-75001, 1:200) at 50 uL per well. Cells were incubated with the primary antibody at 4° C. for 18 h. The wells were then washed using 1×PBST for 3 times, 5 min each time. IRDye® 680RD Goat anti-Mouse IgG (H+L) secondary antibody was diluted at 1/2000 using the diluent buffer and added at 100 μL per well. Secondary antibody incubation was for 1 h at room temperature. Cells were then washed using 1×PBST for 3 times, 5 min each time. The signal was detected and analyzed using LI-COR Odyssey DLx Imaging system. Data were collected and further processed using GraphPad Prism for IC50 estimation.

T1 sequence (P09874 whole entry): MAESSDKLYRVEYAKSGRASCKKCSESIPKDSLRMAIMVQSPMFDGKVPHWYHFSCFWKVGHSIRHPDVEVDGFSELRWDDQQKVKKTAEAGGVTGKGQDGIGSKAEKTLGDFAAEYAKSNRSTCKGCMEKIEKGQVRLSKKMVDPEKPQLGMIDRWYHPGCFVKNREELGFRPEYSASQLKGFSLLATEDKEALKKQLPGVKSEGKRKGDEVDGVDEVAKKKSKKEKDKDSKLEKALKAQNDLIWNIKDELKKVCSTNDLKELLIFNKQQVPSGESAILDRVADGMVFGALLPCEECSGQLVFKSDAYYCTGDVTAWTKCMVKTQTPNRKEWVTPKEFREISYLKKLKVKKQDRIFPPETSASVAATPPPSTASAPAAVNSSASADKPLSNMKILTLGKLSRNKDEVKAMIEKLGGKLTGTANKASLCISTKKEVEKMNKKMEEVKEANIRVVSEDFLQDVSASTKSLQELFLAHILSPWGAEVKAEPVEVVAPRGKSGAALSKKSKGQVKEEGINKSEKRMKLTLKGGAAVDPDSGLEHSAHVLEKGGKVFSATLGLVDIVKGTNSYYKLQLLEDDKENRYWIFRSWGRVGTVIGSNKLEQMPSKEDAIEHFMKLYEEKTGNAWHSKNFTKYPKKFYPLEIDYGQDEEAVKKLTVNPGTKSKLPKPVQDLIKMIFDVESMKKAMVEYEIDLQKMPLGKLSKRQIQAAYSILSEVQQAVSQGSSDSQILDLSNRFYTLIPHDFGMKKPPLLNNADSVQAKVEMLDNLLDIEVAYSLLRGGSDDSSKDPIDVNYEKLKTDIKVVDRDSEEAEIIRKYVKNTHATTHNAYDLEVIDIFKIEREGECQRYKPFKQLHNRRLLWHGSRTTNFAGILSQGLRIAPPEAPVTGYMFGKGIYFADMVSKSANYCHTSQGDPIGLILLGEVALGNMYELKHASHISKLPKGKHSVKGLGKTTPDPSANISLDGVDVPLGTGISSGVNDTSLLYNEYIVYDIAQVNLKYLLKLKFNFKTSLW

| Structure (SMILES) | IC50 [nM] |
| --- | --- |
| CNC(=O)c1ccc(N2CCN(Cc3ncc4c5c(c(=O)[nH]c4c3F)CCC5)CC2)c(C(F)(F)F)n1 [Compound I-28, 5-(4-((4-Fluoro-6-oxo-6,7,8,9-tetrahydro-5H-cyclopenta[c][1,6]naphthyridin-3-yl)methyl)piperazin-1-yl)-N-methyl-6-(trifluoromethyl)picolinamide] | ≤ 10 |
| CNC(=O)c1ccc(N2CCN(Cc3ccc4c(c3)[nH]c(=O)c3c4cnn3C)CC2)cn1 [Compound I-10, N-methyl-5-(4-((3-methyl-4-oxo-4,5-dihydro-3H-pyrazolo[3,4-c]quinolin-7-yl)methyl)piperazin-1-yl)picolinamide] | 10 to 100 |
| CNC(=O)c1ccc(N2CCN(Cc3cc(OC)c4c(=O)n(C)c(=O)[nH]c4c3F)CC2)c(C)n1 [Compound I-38, 5-(4-((8-Fluoro-5-methoxy-3-methyl-2,4-dioxo-1,2,3,4-tetrahydroquinazolin-7-yl)methyl)piperazin-1-yl)-N,6-dimethylpicolinamide] | ≤ 10 |
| CCn1c(=O)[nH]c2cc(CN3CCN(c4ccc(C(=O)NC)nc4)CC3)ccc2c1=O [Compound I-1, 5-(4-((3-Ethyl-2,4-dioxo-1,2,3,4-tetrahydroquinazolin-7-yl)methyl)piperazin-1-yl)-N-methylpicolinamide] | ≤ 10 |
| CCN1C(=O)Nc2c(F)c(CN3CCN(c4ccc(C(=O)NC5CC5)nc4C)CC3)cc3c(C)nnc1c23 [Compound I-56, N-cyclopropyl-5-(4-((9-ethyl-6-fluoro-3-methyl-8-oxo-8,9-dihydro-7H-pyridazino[3,4,5-de]quinazolin-5-yl)methyl)piperazin-1-yl)-6-methylpicolinamide] | ≤ 10 |
| CCN1C(=O)Nc2c(F)c(CN3CCN(c4ccc(C(=O)NC)nc4C)CC3)cc3ncnc1c23 [Compound I-35, 5-(4-((3-ethyl-9-fluoro-2-oxo-2,3-dihydro-1H-pyrimido[4,5,6-de]quinazolin-8-yl)methyl)piperazin-1-yl)-N,6-dimethylpicolinamide] | ≤ 10 |
| CCN1C(=O)Nc2c(F)c(CN3CCN(c4ccc(C(=O)NC5CC5)cc4F)CC3)cc3ncnc1c23 [Compound I-86, N-cyclopropyl-4-(4-((3-ethyl-9-fluoro-2-oxo-2,3-dihydro-1H-pyrimido[4,5,6-de]quinazolin-8-yl)methyl)piperazin-1-yl)-3-fluorobenzamide] | 10 to 100 |
| CCN1Cc2ccc(CN3CCN(c4ccc(C(=O)NC)nc4)CC3)cc2NC1=O [Compound I-2, 5-(4-((3-Ethyl-2-oxo-1,2,3,4-tetrahydroquinazolin-7-yl)methyl)piperazin-1-yl)-N-methylpicolinamide] | 10 to 100 |
| CNC(=O)c1ccc(N2CCN(Cc3ccc4c5c(c(=O)[nH]c4c3)CCC5)CC2)cn1 [Compound I-4, N-methyl-5-(4-((4-oxo-2,3,4,5-tetrahydro-1H-cyclopenta[c]quinolin-7-yl)methyl)piperazin-1-yl)picolinamide] | ≤ 10 |
| CNC(=O)c1ccc(N2CCN(Cc3cnc4c5c(c(=O)[nH]c4c3)CCC5)CC2)c(F)n1 [Compound I-24, 6-Fluoro-N-methyl-5-(4-((6-oxo-6,7,8,9-tetrahydro-5H-cyclopenta[c][1,5]naphthyridin-3-yl)methyl)piperazin-1-yl)picolinamide] | ≤ 10 |
| CCN1C(=O)Nc2c(F)c(CN3CCN(c4ccc(C(=O)NC5CC5)cc4C)CC3)cc3ncnc1c23 [Compound I-82, N-cyclopropyl-4-(4-((3-ethyl-9-fluoro-2-oxo-2,3-dihydro-1H-pyrimido[4,5,6-de]quinazolin-8-yl)methyl)piperazin-1-yl)-3-methylbenzamide] | ≤ 10 |
| CCn1c(=O)[nH]c2cc(CN3CCN(c4ccc(C(=O)NC)nc4C)CC3)ccc2c1=O [Compound I-16, 5-(4-((3-ethyl-2,4-dioxo-1,2,3,4-tetrahydroquinazolin-7-yl)methyl)piperazin-1-yl)-N,6-dimethylpicolinamide] | ≤ 10 |
| CCN1C(=O)Nc2c(F)c(CN3CCN(c4ccc(C(=O)NC)nc4C)CC3)cc3nc(OC)nc1c23 [Compound I-50, 5-(4-((3-Ethyl-9-fluoro-5-methoxy-2-oxo-2,3-dihydro-1H-pyrimido[4,5,6-de]quinazolin-8-yl)methyl)piperazin-1-yl)-N,6-dimethylpicolinamide] | ≤ 10 |
| CCn1c(=O)[nH]c2c(F)c(CN3CCN(c4ccc(C(=O)NC)nc4C)CC3)cc(COC)c2c1=O [Compound I-46, 5-(4-((3-Ethyl-8-fluoro-5-(methoxymethyl)-2,4-dioxo-1,2,3,4-tetrahydroquinazolin-7-yl)methyl)piperazin-1-yl)-N,6-dimethylpicolinamide] | ≤ 10 |

The remaining lines, values ahead:

| IC50 [nM] | Structure (SMILES) |
| --- | --- |
| ≤ 10 | CCn1c(=O)[nH]c2c(F)c(CN3CCN(c4ccc(C(=O)NC)nc4C)CC3)ccc2c1=O [Compound I-21, 5-(4-((3-ethyl-8-fluoro-2,4-dioxo-1,2,3,4-tetrahydroquinazolin-7-yl)methyl)piperazin-1-yl)-N,6-dimethylpicolinamide] |
| 10 to 100 | CCN1C(=O)Nc2c(F)c(CN3CCN(c4ccc(C(=O)N[C@H]5CC[C@@H](C#N)CC5)nc4C)CC3)cc3ncnc1c23 [Compound I-74, N-((1s,4s)-4-cyanocyclohexyl)-5-(4-((3-ethyl-9-fluoro-2-oxo-2,3-dihydro-1H-pyrimido[4,5,6-de]quinazolin-8-yl)methyl)piperazin-1-yl)-6-methylpicolinamide] |
| ≤ 10 | CCN1C(=O)Nc2cc(CN3CCN(c4ccc(C(=O)NC)nc4)CC3)cc3ncnc1c23 [Compound I-15, 5-(4-((3-Ethyl-2-oxo-2,3-dihydro-1H-pyrimido[4,5,6-de]quinazolin-8-yl)methyl)piperazin-1-yl)-N-methylpicolinamide] |
| ≤ 10 | CNC(=O)c1ccc(N2CCN(Cc3ccc4c(=O)n(CC(F)F)c(=O)[nH]c4c3)CC2)cn1 [Compound I-12, 5-(4-((3-(2,2-Difluoroethyl)-2,4-dioxo-1,2,3,4-tetrahydroquinazolin-7-yl)methyl)piperazin-1-yl)-N-methylpicolinamide] |
| 10 to 100 | CNC(=O)c1ccc(N2CCN(Cc3ccc4c(c3)NC(=O)C3(CC3)C4)CC2)cn1 [Compound I-5, N-methyl-5-(4-((2′-oxo-1′,4′-dihydro-2′H-spiro[cyclopropane-1,3′-quinolin]-7′-yl)methyl)piperazin-1-yl)picolinamide] |
| 10 to 100 | CCN1C(=O)Nc2c(F)c(CN3CCN(c4ccc(C(=O)NC5(CC#N)CC5)c(F)c4F)CC3)cc3ncnc1c23 [Compound I-95, N-(1-(cyanomethyl)cyclopropyl)-4-(4-((3-ethyl-9-fluoro-2-oxo-2,3-dihydro-1H-pyrimido[4,5,6-de]quinazolin-8-yl)methyl)piperazin-1-yl)-2,3-difluorobenzamide] |
| ≤ 10 | CCn1c(=O)[nH]c2cc(CN3CCN(c4ccc(C(=O)NC)nc4C)CC3)cc(F)c2c1=O [Compound I-22, 5-(4-((3-ethyl-5-fluoro-2,4-dioxo-1,2,3,4-tetrahydroquinazolin-7-yl)methyl)piperazin-1-yl)-N,6-dimethylpicolinamide] |
| 10 to 100 | CCN1C(=O)Nc2c(F)c(CN3CCN(c4ccc(C(=O)N[C@H]5CC[C@H](C#N)CC5)nc4C)CC3)cc3ncnc1c23 [Compound I-75, N-((1r,4r)-4-cyanocyclohexyl)-5-(4-((3-ethyl-9-fluoro-2-oxo-2,3-dihydro-1H-pyrimido[4,5,6-de]quinazolin-8-yl)methyl)piperazin-1-yl)-6-methylpicolinamide] |
